Measurements taken from patent publication US6440996B1, “Monomeric and dimeric heterocycles, and therapeutic uses thereof” (priority 1998, dated 2002).
Counter-ions that a name gives are not always drawn. Like-named read-outs stand apart in the source and are kept apart here.

What was measured:
[1] = target: T1, dopamine transporter (Rattus norvegicus, UniProt P23977); assay: [3H]WIN 35,428 binding to rat striatal membranes / dopamine transporter binding (DAT)
T1 construct: from tissue; P2 synaptosomes for uptake
Experimental: (§1) Determination of inhibitory binding potencies of analogues at dopamine, serotonin, and norepinephrine transporters are carried out using standard receptor binding assays which are known in the art.
A. Dopamine Transporter Binding (DAT)

[2] = target: T1, dopamine transporter; assay: Inhibition of high-affinity [3H]dopamine uptake into rat striatal nerve endings (synaptosomes); format: biochemical
Experimental: A. [^3H]Dopamine Uptake Studies
The effect of candidate compounds in antagonizing dopamine high-affinity uptake was determined using a method previously employed. For [^3H]DA uptake, dissected rat striata were homogenized with a Teflon-glass pestle in ice-cold 0.32 M sucrose and centrifuged for 10 min at 1000×g. The supernatant was centrifuged at 17,500×g for 20 min. This P2 synaptosomal pellet was resuspended in 30 volumes of ice-cold modified KRH buffer. An aliquot of the synaptosomal suspension was preincubated with the buffer and drug for 30 min at 37° C., and uptake initiated by the addition of [^3H]dopamine (5 nM, final concentration). After 5 min, uptake was terminated by adding 5 mL of cold buffer containing glucosamine as a substitute for NaCl and then finally by rapid vacuum filtration over GF-C glass fiber filters, followed by washing with two 5 mL volumes of ice-cold, sodium-free buffer. Radioactivity retained on the filters was determined by liquid scintillation spectrometry. […] It is identical to that calculated by subtracting the mean of identical tubes incubated at 0° C.

[3] = target: norepinephrine transporter (Rattus norvegicus, UniProt Q9WTR4); assay: Norepinephrine transporter binding (NET)
Experimental: as §1
C. Norepinephrine Transporter Binding (NET)
J. Med Chem., 36, 2886-2890.

[4] = target: serotonin transporter (Rattus norvegicus, UniProt P31652); assay: Serotonin transporter binding (5-HTT)
Experimental: as §1
B. Serotonin Transporter Binding (5-HTT)
Mol. Pharmacol., 39, 339.

[5] = IC50 (nM) [3H]WIN 35,428 binding, rat striatal membranes, Table 1
[6] = rat striatal synaptosomes, Table 1, read-out: IC50 (nM) [3H]dopamine uptake
[7] = Table 2, unit inferred, read-out: Dopamine Uptake
[8] = rat striatal membranes, Table 1, read-out: IC50 (nM) [3H]WIN 35,428 binding
[9] = Table 2, read-out: NET IC50 (nm)
[10] = Table 2, read-out: 5-HTT IC50 (nm)
[11] = Table 2, read-out: DAT IC50 (nm)

Sequence of norepinephrine transporter (Q9WTR4 1-597): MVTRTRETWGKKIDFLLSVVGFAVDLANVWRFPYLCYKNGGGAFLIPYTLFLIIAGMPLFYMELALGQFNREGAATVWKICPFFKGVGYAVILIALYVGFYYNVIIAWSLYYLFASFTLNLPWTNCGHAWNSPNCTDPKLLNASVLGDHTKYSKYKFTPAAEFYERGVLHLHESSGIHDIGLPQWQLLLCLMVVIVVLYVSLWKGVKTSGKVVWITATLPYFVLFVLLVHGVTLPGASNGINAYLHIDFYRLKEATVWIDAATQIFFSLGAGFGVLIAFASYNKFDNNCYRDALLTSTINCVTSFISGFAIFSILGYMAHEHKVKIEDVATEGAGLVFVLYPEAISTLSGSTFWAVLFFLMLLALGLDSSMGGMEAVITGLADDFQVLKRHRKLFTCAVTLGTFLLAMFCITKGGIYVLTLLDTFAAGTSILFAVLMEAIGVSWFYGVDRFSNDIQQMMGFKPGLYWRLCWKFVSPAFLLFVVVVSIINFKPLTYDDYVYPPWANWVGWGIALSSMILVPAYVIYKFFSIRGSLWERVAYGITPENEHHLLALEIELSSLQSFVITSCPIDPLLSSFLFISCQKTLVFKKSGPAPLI
Sequence of serotonin transporter (P31652 whole entry): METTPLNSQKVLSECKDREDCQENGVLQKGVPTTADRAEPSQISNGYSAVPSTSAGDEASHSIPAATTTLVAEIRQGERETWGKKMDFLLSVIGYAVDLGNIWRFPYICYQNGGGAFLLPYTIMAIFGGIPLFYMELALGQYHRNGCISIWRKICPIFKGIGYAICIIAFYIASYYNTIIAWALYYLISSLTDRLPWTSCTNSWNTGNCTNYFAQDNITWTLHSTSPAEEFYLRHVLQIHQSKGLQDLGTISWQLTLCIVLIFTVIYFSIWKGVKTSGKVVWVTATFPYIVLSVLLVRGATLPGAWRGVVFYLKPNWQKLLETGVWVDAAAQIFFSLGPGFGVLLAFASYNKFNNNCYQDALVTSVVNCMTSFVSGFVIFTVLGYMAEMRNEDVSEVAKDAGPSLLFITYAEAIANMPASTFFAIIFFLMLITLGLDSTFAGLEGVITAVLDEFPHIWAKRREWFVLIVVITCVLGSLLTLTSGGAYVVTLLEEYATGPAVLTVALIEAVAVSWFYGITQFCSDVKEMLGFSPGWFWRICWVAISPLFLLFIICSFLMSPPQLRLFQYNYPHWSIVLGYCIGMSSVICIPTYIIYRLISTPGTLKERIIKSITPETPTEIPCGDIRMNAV
T1 sequence (P23977 whole entry): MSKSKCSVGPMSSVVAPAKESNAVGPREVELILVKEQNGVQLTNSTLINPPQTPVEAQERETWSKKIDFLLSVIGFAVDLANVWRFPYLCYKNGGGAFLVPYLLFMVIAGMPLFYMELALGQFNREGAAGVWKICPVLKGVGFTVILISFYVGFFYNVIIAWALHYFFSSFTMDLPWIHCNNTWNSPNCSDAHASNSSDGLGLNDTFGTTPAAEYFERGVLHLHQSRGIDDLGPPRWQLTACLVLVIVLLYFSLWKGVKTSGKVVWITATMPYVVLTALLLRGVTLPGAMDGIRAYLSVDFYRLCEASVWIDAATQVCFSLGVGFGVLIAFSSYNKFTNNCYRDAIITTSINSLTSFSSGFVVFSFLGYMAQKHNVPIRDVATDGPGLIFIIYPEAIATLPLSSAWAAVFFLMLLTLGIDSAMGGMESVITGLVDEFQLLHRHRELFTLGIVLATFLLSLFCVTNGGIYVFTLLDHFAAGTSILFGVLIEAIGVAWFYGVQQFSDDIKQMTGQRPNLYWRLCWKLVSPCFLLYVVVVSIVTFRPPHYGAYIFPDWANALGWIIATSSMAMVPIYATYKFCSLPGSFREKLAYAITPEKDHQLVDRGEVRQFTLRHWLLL

COC(=O)C1CN(C)CCC1c1ccc(Cl)cc1 (racemic) [1 · HCl]
IC50 ([1]; DAT IC50 (nm), Table 2): 53 nM

COC(=O)[C@@H]1CN(C)CC[C@@H]1c1ccc(Cl)cc1 (racemic) [Compound 1, (±)-cis-Methyl 4-(4-Chlorophenyl)-1-methylpiperidine-3-carboxylate]
IC50 ([1]; DAT IC50 (nm), Table 2): 22 nM
IC50 [1, 5]: 53.7 ± 1.9 nM
IC50 [2, 6]: 37.8 ± 7.9 nM
melting point: 98 to 99 °C

COC(=O)C1CN(C)CCC1c1ccc2ccccc2c1 (racemic) [Compound 75, (±)-Methyl 4-(2-Naphthyl)-1-methylpiperidine-3-carboxylate]
IC50 ([1]; DAT IC50 (nm), Table 2): 78 nM
IC50 [3]: 0.607 µM
IC50 ([4]; 5-HTT IC50 (nm), Table 2): 0.366 µM

COC(=O)C1CN(C)CCC1c1ccc(Cl)cc1 (single isomer, unassigned; (+)) [Compound 4, (+)-Methyl 4β-(4-Chlorophenyl)-1-methylpiperidine-3β-carboxylate]
IC50 [2, 7]: 5090 nM
IC50 [2, 6]: 5090 ± 172 nM

CN1CCC(c2ccc(Cl)cc2)C(CO)C1 (single isomer, unassigned; (+)) [Compound 6, (+)-4β-(4-Chlorophenyl)-3β-(hydroxymethyl)-1-methylpiperidine]
IC50 ([1]; DAT IC50 (nm), Table 2): 442 nM
IC50 [1, 5]: 442 ± 32 nM

CC(=O)OCC1CN(C)CCC1c1ccc(Cl)cc1 (single isomer, unassigned; (+)) [Compound 8, (+)-3β-(Acetoxymethyl)-4β-(4-chlorophenyl)-1-methylpiperidine]
IC50 ([1]; DAT IC50 (nm), Table 2): 928 nM
IC50 [1, 5]: 928 ± 43 nM
IC50 [2, 7]: 2030 nM
IC50 [2, 6]: 2030 ± 82 nM

CN1CCC(c2ccc(Cl)cc2)C(CO)C1 (single isomer, unassigned; (+)) [Compound 13, (+)-4β-(4-Chlorophenyl)-3α-(hydroxymethyl)-1-methylpiperidine]
IC50 ([1]; DAT IC50 (nm), Table 2): 240 nM
IC50 [1, 5]: 240 ± 18 nM
IC50 [2, 7]: 864 nM
IC50 [2, 6]: 683 ± 47 nM

CC(=O)OCC1CN(C)CCC1c1ccc(Cl)cc1 (single isomer, unassigned; (+)) [Compound 14, (+)-3α-(Acetoxymethyl)-4β-(4-chlorophenyl)-1-methylpiperidine]
IC50 ([1]; DAT IC50 (nm), Table 2): 461 nM
IC50 [1, 5]: 461 ± 11 nM

CCCC1CN(C)CCC1c1ccc(Cl)cc1 (single isomer, unassigned; (+)) [Compound 15, (+) 4β-(4-Chlorophenyl)-1-methyl-3α-n-propylpiperidine]
IC50 [1, 8]: 17.2 ± 0.5 nM
IC50 [2, 7]: 23 nM
IC50 [2, 6]: 23.2 ± 2.2 nM
IC50 [3, 9]: 0.183 µM
IC50 [4, 10]: 0.155 µM

CN1CCC(c2ccc(Cl)cc2)C(CCCS)C1 (single isomer, unassigned; (+)) [Compound 55]
IC50 [1, 11]: 28 nM

Cc1noc(C2CN(C)CCC2c2ccc(Cl)cc2)n1 (single isomer, unassigned; (+)) [Compound 56]
IC50 [1, 11]: 172 nM
IC50 [3, 9]: 1.13 µM
IC50 [4, 10]: > 10 µM

CN1CCC(c2ccc(Cl)cc2)C(c2nc(-c3ccccc3)no2)C1 (single isomer, unassigned; (+)) [Compound 58]
IC50 ([1]; DAT IC50 (nm), Table 2): 289 nM
IC50 [4]: 7.4 µM

CN1CCC(c2ccc(Cl)cc2)C(C(=O)Oc2ccccc2)C1 (single isomer, unassigned; (+)) [Compound 59, (+)-Phenyl 4β-(4-Chlorophenyl)-1-methylpiperidine-3α-carboxylate]
IC50 ([1]; DAT IC50 (nm), Table 2): 1460 nM
IC50 [3]: 56.5 µM
IC50 ([4]; 5-HTT IC50 (nm), Table 2): 25.1 µM

C=Cc1ccc(C2CCN(C)CC2C(=O)OC)cc1 (single isomer, unassigned; (+)) [Compound 65, (+)-Methyl 4β-(4-Vinylphenyl)-1-methylpiperidine-3α-carboxylate]
IC50 ([4]; 5-HTT IC50 (nm), Table 2): 55.7 µM

CCc1ccc(C2CCN(C)CC2C(=O)OC)cc1 (single isomer, unassigned; (+)) [Compound 67, (+)-Methyl 4β-(4-Ethylphenyl)-1-methylpiperidine-3α-carboxylate]
IC50 [1, 11]: 7340 nM

CCc1ccc(C2CCN(C)CC2C(=O)OC)cc1I (single isomer, unassigned; (+)) [Compound 68, (+)-Methyl 4β-(4-Ethyl-3-iodophenyl)-1-methylpiperidine-3α-carboxylate]
IC50 ([1]; DAT IC50 (nm), Table 2): 1420 nM

COC(=O)C1CN(C)CCC1c1ccc(Cl)cc1 (single isomer, unassigned; (-)) [Compound 12, (−)-Methyl 4β-(4-Chlorophenyl)-1-methylpiperidine-3α-carboxylate]
IC50 ([1]; DAT IC50 (nm), Table 2): 653 nM
IC50 [1, 5]: 653 ± 38 nM
IC50 [2, 7]: 195 nM
IC50 [2, 6]: 195 ± 8 nM

COC(=O)C1CN(Cc2ccccc2)CCC1c1ccc(Cl)cc1 (single isomer, unassigned; (-)) [Compound 47, (−)-Methyl 4β-(4-Chlorophenyl)-1-benzylpiperidine-3β-carboxylate]
IC50 ([1]; DAT IC50 (nm), Table 2): 917 nM
melting point: 119 to 121 °C

COC(=O)C1(C)CN(C)CCC1c1ccc(Cl)cc1 (single isomer, unassigned; (-)) [Compound 49, (−)-Methyl 4β-(4-Chlorophenyl)-3β-methyl-1-methylpiperidine-3b-carboxylate]
IC50 ([1]; DAT IC50 (nm), Table 2): 1970 nM

CN1CCC(c2ccc(Cl)cc2)C(C(=O)Oc2ccccc2)C1 (single isomer, unassigned; (-)) [Compound 60, (−)-Phenyl 4β-(4-Chlorophenyl)-1-methylpiperidine-3b-carboxylate]
IC50 ([1]; DAT IC50 (nm), Table 2): 39 nM

CCc1ccc(C2CCN(C)CC2C(=O)OC)cc1I (single isomer, unassigned; (-)) [Compound 66, (−)-Methyl 4β-(4-Ethyl-3-iodophenyl)-1-methylpiperidine-3β-carboxylate]
IC50 ([1]; DAT IC50 (nm), Table 2): 4410 nM

CCc1ccc(C2CCN(C)CC2C(=O)OC)cc1 (single isomer, unassigned; (-)) [Compound 81, (−)-Methyl 4β-(4-Ethylphenyl)-1-methylpiperidine-3β-carboxylate]
IC50 [1, 11]: 1690 nM
IC50 [3, 9]: > 10 µM
IC50 ([4]; 5-HTT IC50 (nm), Table 2): 15.7 µM

CN1CC[C@H](c2ccc(Cl)cc2)[C@H](CO)C1 [Compound 5, (−)-4β-(4-Chlorophenyl)-3β-(hydroxymethyl)-1-methylpiperidine]
IC50 ([1]; DAT IC50 (nm), Table 2): 75 nM
IC50 [1, 5]: 75.3 ± 6.2 nM
IC50 [2, 7]: 49 nM
IC50 [2, 6]: 49 ± 3 nM

CCC[C@@H]1CN(C)CC[C@@H]1c1ccc(Cl)cc1 [Compound 9, (−) 4β-(4-Chlorophenyl)-1-methyl-3β-n-propylpiperidine]
IC50 [1, 11]: 3 nM
IC50 [1, 8]: 3 ± 0.5 nM
IC50 ([1]; read-out: binding affinity): 3 nM
fold more potent than cocaine in binding affinity ([1]; relative to cocaine): 33 fold
IC50 [2, 7]: 8 nM
IC50 [2, 6]: 8.3 ± 0.6 nM
fold more potent than cocaine in inhibition of dopamine uptake ([2]; relative to cocaine): 29 fold

COC(=O)[C@@H]1CN(C)CC[C@@H]1c1ccccc1 [Compound 10, (−)-Methyl 1-Methyl-4β-phenylpiperidine-3β-carboxylate]
IC50 ([1]; DAT IC50 (nm), Table 2): 797 nM
IC50 [1, 5]: 769 ± 19 nM

COC(=O)[C@H]1CN(C)CC[C@@H]1c1ccc(Cl)cc1 [Compound 11, (+)-Methyl 4β-(4-Chlorophenyl)-1-methylpiperidine-3α-carboxylate]
IC50 [1, 11]: 57 nM
IC50 [1, 8]: 57.3 ± 8.1 nM
IC50 [2, 7]: 34 nM
IC50 [2, 6]: 34.6 ± 3.2 nM
IC50 [3]: 4.2 µM
IC50 ([4]; 5-HTT IC50 (nm), Table 2): 1.62 µM

CN1CC[C@H](c2ccc(Cl)cc2)[C@@H](CCCO)C1 [Compound 54]
IC50 ([1]; DAT IC50 (nm), Table 2): 15 nM
IC50 [3]: 0.563 µM
IC50 [4]: 2.81 µM

CN1CC[C@H](c2ccc(Cl)cc2)[C@@H](CCCF)C1 [Compound 80, (+)-4β-(4-Chlorophenyl)-3α-(3-fluoropropyl)-1-methylpiperidine]
IC50 ([1]; DAT IC50 (nm), Table 2): 28 nM
